# Values joined by “and” are separate entries in the source; they are usually repeats but may differ in a detail not shown here. Equal values may be shown once. Toxic doses and inconclusive results are not listed.
# Tested on: P388 leukemia ip, CD2F1 mice, survival T/C
# Experiment: NCI In Vivo Anticancer Drug Screen. Data for tumor model P388 Leukemia (intraperitoneal) in CD2F1 (CDF1) mice
# Settings: endpoint: median survival time, higher = longer survival
# Procedure, shortened: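 Mice carrying the transplanted tumor received test compound or vehicle. Survival was recorded in each group, and the value is the treated-group measurement divided by that of the vehicle-treated control group.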
# [1] = dose: 50.0 mg/kg/injection, schedule: Q01DX005 (ip), vehicle: saline with Tween-80
# [2] = dose: 100.0 mg/kg/injection, schedule: Q01DX005 (ip), vehicle: saline with Tween-80
# [3] = dose: 200.0 mg/kg/injection, schedule: Q01DX005 (ip), vehicle: saline with Tween-80
# [4] = dose: 12.5 mg/kg/injection, schedule: Q01DX009 (ip), vehicle: saline with Tween-80
# [5] = dose: 25.0 mg/kg/injection, schedule: Q01DX009 (ip), vehicle: saline with Tween-80
# [6] = dose: 6.25 mg/kg/injection, schedule: Q01DX009 (ip), vehicle: saline
# [7] = dose: 12.5 mg/kg/injection, schedule: Q01DX009 (ip), vehicle: saline
# [8] = dose: 25.0 mg/kg/injection, schedule: Q01DX009 (ip), vehicle: saline
# [9] = dose: 60.0 mg/kg/injection, schedule: Q01DX005 (ip), vehicle: saline with Tween-80
# [10] = dose: 50.0 mg/kg/injection, schedule: Q01DX009 (ip), vehicle: saline
# [11] = dose: 100.0 mg/kg/injection, schedule: Q01DX009 (ip), vehicle: saline
# [12] = dose: 200.0 mg/kg/injection, schedule: Q01DX009 (ip), vehicle: saline
# [13] = dose: 6.25 mg/kg/injection, schedule: Q01DX009 (ip), vehicle: saline with Tween-80
# [14] = dose: 50.0 mg/kg/injection, schedule: Q01DX009 (ip), vehicle: saline with Tween-80
# [15] = dose: 100.0 mg/kg/injection, schedule: Q01DX009 (ip), vehicle: saline with Tween-80
# [16] = dose: 200.0 mg/kg/injection, schedule: Q01DX009 (ip), vehicle: saline with Tween-80
smiles,measurement,setting,value
CC(C)N1CCOC1c1ccccc1 (stereo not drawn),T/C,"dose: 50.0 mg/kg/injection, schedule: Q04DX003 (ip), vehicle: saline sonified",109 % of control
same,T/C,"dose: 100.0 mg/kg/injection, schedule: Q04DX003 (ip), vehicle: saline sonified",118 % of control
same,T/C,"dose: 200.0 mg/kg/injection, schedule: Q04DX003 (ip), vehicle: saline sonified",109 % of control
Cc1ccc(-c2nc3ccccc3c(=O)n2/N=C/c2ccc(O)cc2)cc1,T/C,[1],100 % of control
same,T/C,[2],99 % of control
same,T/C,[3],89 % of control
CNC(=O)OCc1c(COC(=O)NC)c(-c2ccc(Cl)cc2)n2c1CCC2,T/C,"dose: 6.25 mg/kg/injection, schedule: Q01DX009 (ip), vehicle: Klucel (hydroxypropylcellulose) (HPC)",150 % of control
same,T/C,"dose: 12.5 mg/kg/injection, schedule: Q01DX009 (ip), vehicle: Klucel (hydroxypropylcellulose) (HPC)",94 % of control
same,T/C,"dose: 25.0 mg/kg/injection, schedule: Q01DX009 (ip), vehicle: Klucel (hydroxypropylcellulose) (HPC)",88 % of control
same,T/C,"dose: 50.0 mg/kg/injection, schedule: Q01DX009 (ip), vehicle: Klucel (hydroxypropylcellulose) (HPC)",104 % of control
CC1=CC2=C(C=O)C(=O)[C@](C)(O)[C@@H](O)C2=CO1,T/C,[4],109 % of control
same,T/C,[5],118 % of control
COC(=O)C(CC(=O)c1cc2c(cc1Br)OCO2)(Cc1cc(OC)c(OC)c(OC)c1I)C(=O)OC,T/C,"dose: 3.12 mg/kg/injection, schedule: Q01DX009 (ip), vehicle: saline",97 % of control
same,T/C,[6],98 % of control
same,T/C,[7],97 % of control
same,T/C,[8],98 % of control
same,T/C,"dose: 100.0 mg/kg/injection, schedule: Q01DX001 (ip), vehicle: saline",100 % of control
same,T/C,"dose: 200.0 mg/kg/injection, schedule: Q01DX001 (ip), vehicle: saline",98 % of control
same,T/C,"dose: 400.0 mg/kg/injection, schedule: Q01DX001 (ip), vehicle: saline",100 % of control
CCC[CH2][Sn]([Cl])([CH2]CCC)[S]/C(C#N)=N/N=C/c1ccc(N(C)C)cc1,T/C,"dose: 15.0 mg/kg/injection, schedule: Q01DX005 (ip), vehicle: saline with Tween-80",106 % of control
same,T/C,[9],122 % of control
Cn1c(N)c2c(=O)n(C)c3c(c2c(C#N)c1=O)CCSc1ccccc1-3,T/C,[1],94 % of control
same,T/C,[2],93 % of control
CCN(Cc1c(C)[nH]c2ccc(N(C)C)cc2c1=O)Cc1c(C)[nH]c2ccc(N(C)C)cc2c1=O,T/C,[10],101 % of control
same,T/C,[11],101 % of control
same,T/C,[12],106 % of control
CC(C)n1c2c([n+](C)c1/C=C/c1ccccc1)C(=O)c1ccccc1C2=O,T/C,"dose: 0.44 mg/kg/injection, schedule: Q01DX009 (ip), vehicle: saline",109 % of control
same,T/C,"dose: 0.66 mg/kg/injection, schedule: Q01DX009 (ip), vehicle: saline",116 % of control
same,T/C,"dose: 1.0 mg/kg/injection, schedule: Q01DX009 (ip), vehicle: saline",119 % of control
same,T/C,"dose: 1.5 mg/kg/injection, schedule: Q01DX009 (ip), vehicle: saline",112 % of control
CSC(=S)N/N=C/c1nccc(-c2ccccc2)c1C,T/C,[10],97 % of control
same,T/C,[11],108 % of control
same,T/C,[12],96 % of control
COc1ccc(C2c3cc4c(cc3OC3(N5CCCC5)CCCCC23)OCO4)cc1 (stereo not drawn),T/C,"dose: 60.0 mg/kg/injection, schedule: Q01DX005 (ip), vehicle: Klucel (hydroxypropylcellulose) (HPC)",99 % of control
same,T/C,"dose: 120.0 mg/kg/injection, schedule: Q01DX005 (ip), vehicle: Klucel (hydroxypropylcellulose) (HPC)",94 % of control
same,T/C,"dose: 240.0 mg/kg/injection, schedule: Q01DX005 (ip), vehicle: Klucel (hydroxypropylcellulose) (HPC)",88 % of control
Cc1ccc(S(=O)(=O)OCC(C)(C)C)cc1,T/C,"dose: 50.0 mg/kg/injection, schedule: Q04DX003 (ip), vehicle: Klucel (hydroxypropylcellulose) (HPC)",100 % of control
same,T/C,"dose: 100.0 mg/kg/injection, schedule: Q04DX003 (ip), vehicle: Klucel (hydroxypropylcellulose) (HPC)",100 % of control
same,T/C,"dose: 200.0 mg/kg/injection, schedule: Q04DX003 (ip), vehicle: Klucel (hydroxypropylcellulose) (HPC)",100 % of control
same,T/C,"dose: 400.0 mg/kg/injection, schedule: Q04DX003 (ip), vehicle: Klucel (hydroxypropylcellulose) (HPC)",96 % of control
NC(=S)N/N=C\c1nccc2c(N)cccc12,T/C,"dose: 3.13 mg/kg/injection, schedule: Q01DX009 (ip), vehicle: saline",161 % of control
same,T/C,[13],153 % of control
same,T/C,[6],161 % of control
same,T/C,[4],162 % of control
same,T/C,[7],150 % of control and 166 % of control
same,T/C,"dose: 18.8 mg/kg/injection, schedule: Q04DX003 (ip), vehicle: saline",155 % of control
same,T/C,[8],167 % of control
same,T/C,[14],152 % of control and 155 % of control
same,T/C,[10],168 % of control and 181 % of control
same,T/C,"dose: 75.0 mg/kg/injection, schedule: Q01DX009 (ip), vehicle: saline with Tween-80",150 % of control
same,T/C,"dose: 75.0 mg/kg/injection, schedule: Q04DX003 (ip), vehicle: saline",155 % of control
same,T/C,"dose: 150.0 mg/kg/injection, schedule: Q04DX003 (ip), vehicle: saline",172 % of control
COc1cc(C2c3cc(O)c(OC)cc3CC3C(=O)OCC32)ccc1O (stereo not drawn),T/C,"dose: 50.0 mg/kg/injection, schedule: Q01DX005 (ip), vehicle: Klucel (hydroxypropylcellulose) (HPC)",95 % of control
same,T/C,"dose: 100.0 mg/kg/injection, schedule: Q01DX005 (ip), vehicle: Klucel (hydroxypropylcellulose) (HPC)",95 % of control
same,T/C,"dose: 200.0 mg/kg/injection, schedule: Q01DX005 (ip), vehicle: Klucel (hydroxypropylcellulose) (HPC)",90 % of control
O=c1[nH]ncn2nc3ccccc3c12,T/C,[1],100 % of control
same,T/C,[2],100 % of control
same,T/C,[3],104 % of control
O=C1CCC2=C1C(c1ccc(Cl)c(Cl)c1)C1=C(CCC1=O)O2,T/C,"dose: 100.0 mg/kg/injection, schedule: Q01DX001 (ip), vehicle: Klucel (hydroxypropylcellulose) (HPC)",98 % of control
same,T/C,"dose: 200.0 mg/kg/injection, schedule: Q01DX001 (ip), vehicle: Klucel (hydroxypropylcellulose) (HPC)",100 % of control
same,T/C,"dose: 400.0 mg/kg/injection, schedule: Q01DX001 (ip), vehicle: Klucel (hydroxypropylcellulose) (HPC)",102 % of control
O=c1[nH]c2nc(SCc3ccccc3)n(Cc3ccccc3)c2c(=O)n1OS(=O)(=O)c1ccccc1,T/C,[9],98 % of control
same,T/C,"dose: 120.0 mg/kg/injection, schedule: Q01DX005 (ip), vehicle: saline with Tween-80",90 % of control
same,T/C,"dose: 240.0 mg/kg/injection, schedule: Q01DX005 (ip), vehicle: saline with Tween-80",90 % of control
NC(=O)N/N=C/c1cccs1,T/C,"dose: 3.12 mg/kg/injection, schedule: Q01DX009 (ip), vehicle: saline with Tween-80",97 % of control
same,T/C,[13],97 % of control
same,T/C,[4],93 % of control
COC(=O)CCCC#C/C=C/CCCC/C=C(Br)\C=C/Br,T/C,"dose: 62.5 mg/kg/injection, schedule: Q01DX009 (ip), vehicle: olive oil, sesame oil, peanut oil",101 % of control
same,T/C,"dose: 125.0 mg/kg/injection, schedule: Q01DX009 (ip), vehicle: olive oil, sesame oil, peanut oil",96 % of control
same,T/C,"dose: 250.0 mg/kg/injection, schedule: Q01DX009 (ip), vehicle: olive oil, sesame oil, peanut oil",98 % of control
Cc1ccc(C2(C)OC(CCl)CS2)c(C)c1 (stereo not drawn),T/C,[5],101 % of control and 98 % of control
same,T/C,[14],104 % of control and 98 % of control
same,T/C,[15],105 % of control
same,T/C,[16],107 % of control and 119 % of control
COc1cc2c(c(OC(C)=O)c1OC(C)=O)-c1ccc(SC)c(=O)cc1C(NC(C)=O)CC2 (stereo not drawn),T/C,"dose: 1.25 mg/kg/injection, schedule: Q01DX009 (ip), vehicle: Klucel (hydroxypropylcellulose) (HPC)",110 % of control
same,T/C,"dose: 2.5 mg/kg/injection, schedule: Q01DX009 (ip), vehicle: Klucel (hydroxypropylcellulose) (HPC)",105 % of control
same,T/C,"dose: 5.0 mg/kg/injection, schedule: Q01DX009 (ip), vehicle: Klucel (hydroxypropylcellulose) (HPC)",93 % of control
same,T/C,"dose: 9.0 mg/kg/injection, schedule: Q01DX009 (ip), vehicle: Klucel (hydroxypropylcellulose) (HPC)",100 % of control
same,T/C,"dose: 10.0 mg/kg/injection, schedule: Q01DX009 (ip), vehicle: Klucel (hydroxypropylcellulose) (HPC)",105 % of control
same,T/C,"dose: 18.0 mg/kg/injection, schedule: Q01DX009 (ip), vehicle: Klucel (hydroxypropylcellulose) (HPC)",89 % of control
same,T/C,"dose: 36.0 mg/kg/injection, schedule: Q01DX009 (ip), vehicle: Klucel (hydroxypropylcellulose) (HPC)",100 % of control
COc1cc2c(cc1O)CCCC(C)(C)C2=O,T/C,[15],95 % of control
same,T/C,[16],96 % of control

# — PubChem BioAssay AID330 (DTP/NCI, 2004)
